Measurements as given in article PMC9786170, “The Pharmacological Potential of Novel Melittin Variants from the Honeybee and Solitary Bees against Inflammation and Cancer” (Toxins, 2022).
“Also recorded” adds a separate entry of the source.

Experiments:
HEK293T cells [1] = experiment: Ca2+ induction assay (Fluo-8); format: cell-based, human; conditions: Fluo-8, 0.25, 2.5, 25 µg/mL, partly already at 2.5 µg/mL, n = 4
Description: (§1) Figure 2 Melittin derivates influence cellular Ca^2+ and IP1 levels. (A) For the Ca^2+ induction assay, Fluo-8 pretreated HEK293-T cells were incubated with melittin derivates in the indicated concentrations and the fluorescence was detected. (B) For the Ca^2+ inhibition assay, Fluo-8 pretreated HEK293-T cells were incubated with peptides in the indicated concentrations for 30 min, stimulated with 5 µM ionomycin, and the fluorescence was detected. (C) IP3 has a short lifetime and is rapidly degraded to IP1; therefore, IP1 was determined. For the IP1/IP3 induction assay (left panel), HEK293T cells were incubated with melittin peptides in the indicated concentration for 2 h, a detection reagent was added, and the fluorescence resonance energy transfer signal was detected. For the IP1/IP3 inhibition assay (right panel), HEK293T cells were incubated with melittin peptides in the indicated concentration for 30 min and stimulated with 20 µM ionomycin for 1.5 h. After the addition of the detection reagent, the fluorescence resonance energy transfer signal was detected. Data are expressed as mean ± SEM. (A, B, C (left)) n = 4, (C (right)) n = 3. * p ≤ 0.05 versus control.
(§2) For analysis, 5 × 10^4 HEK293 cells or 2 × 10^4 MDA-MB-231 cells were seeded in a 96-well poly-D-lysine plate, incubated at 37 °C for 24 h, and treated with 4 µM Fluo-8-AM in HBSS for 1 h at 37 °C. After 1 h, the Fluo-8/HBSS was replaced by 100 µL HBSS. Five images per second were taken using an ImageXpress Micro Confocal High Content Imaging System (Molecular Device, San Jose, CA, USA). Melittin peptides (0.25, 2.5, and 25 µg/mL), DMSO (negative control), or 5 µM ionomycin (Sigma Aldrich; Taufkirchen, Germany) (positive control) were added to the cells. For the next 20 s, an image was obtained every second. For the inhibition assay, the peptide-treated samples (30 min) were treated with 5 µM ionomycin and for the next 20 s, an image was obtained every second. The data were analyzed with the MetaXpress Software Version 6 (Molecular Devices, San Jose, CA, USA). A threshold of fluorescence intensity was defined using cells before treatment, and all cells with a fluorescence signal above the threshold level were counted. For the induction assay, the number of cells above the threshold in the toxin-treated samples were related to the cells in the DMSO-treated sample. For the inhibition assay, the number of cells above the threshold in the melittin-treated samples were related to the cells in the ionomycin-treated sample.

HEK293T cells [2] = experiment: Ca2+ inhibition assay (ionomycin-stimulated, Fluo-8); format: cell-based, human; conditions: Fluo-8, peptide 30 min, then 5 µM ionomycin, n = 4
Description: as §1, §2

RAW264.7 cells [3] = experiment: Cell viability assay (WST-8/Orangu formazan) in RAW264.7 cells; format: cell-based, murine
Description: Figure 1 Toxicity characterization of cells treated with melittin peptides. (A,B) For the viability assay, RAW264.7 (A) or HEK293T (B) cells were treated with bee venom compounds in the indicated concentrations for 24 h. Cells were incubated with WST-8 and the formed formazan was detected by absorbance measurements. (C) For the proliferation assay, HMEC-1 cells were grown in low density and treated after 24 h with the indicated peptide (25 µg/mL) for 72 h. Cells were stained with crystal violet solution. The amount of DNA-bound crystal violet was detected by absorbance measurements. (D) The number of sub-diploidic cells was determined by staining with propidium iodide (PI) and quantified to assess apoptosis of HUVECs. Data are expressed as mean ± SEM. (A) n = 3, (B) n = 4, (C) n = 2–3, (D) n = 2. * p ≤ 0.05 versus control.
For assessing the cytotoxicity of all peptides, various cell types and assays were utilized. To determine the cell viability of HEK293T and RAW246.7 cells, the Orangu^TM assay (Cell Guidance Systems Ltd., Cambridge, UK) was used, as previously described. 2 × 10^5 HEK293T or 2 × 10^5 RAW246.7 were seeded in 96-well plates. Different concentrations (0, 0.25, 2.5, 25 µg/mL) of melittin peptides or vehicle (DMSO) were added. After 24 h of incubation at 37 °C and 5% CO2, 10 µL of Orangu^TM cell counting solution was added and incubated for 60 min. After incubation, absorbance was measured at a wavelength of 450 nm with a reference at 650 nm at an EnSpire 2300 Multimode Plate Reader (Perkin Elmer, Lübeck, Germany). To calculate cell viability, the absorbance of vehicle-treated cells was set to 100%, and the melittin derivates-treated samples were correlated to them.

RAW264.7 cells [4] = experiment: NO inhibition assay (LPS-stimulated, Griess); format: cell-based, murine; conditions: RAW264.7, peptide 30 min, then 100 ng/mL LPS 24 h, n = 3
Description: Figure 4 Influence of melittin derivates on inflammation-associated cell functions. (A,B) For the NO induction assay (A), RAW264.7 cells were treated with melittin peptides in the indicated concentrations for 24 h. For the NO inhibition assay (B), RAW264.7 cells were pretreated with melittin peptides in the indicated concentrations for 30 min and then stimulated with 100 ng/mL LPS for 24 h. NO was detected in the supernatant using the Griess method. […] THP-1 cell adhesion under static conditions. HUVECs were grown to confluence, preincubated with bee venoms for 30 min, and activated with TNF (10 ng/mL) for 24 h. For the leukocyte adhesion assay, untreated THP-1 cells were stained with CellTracker Green and were allowed to adhere to the treated HUVECs for 5 min. The adhesion of leukocytes onto Ecs was quantified by fluorescence measurements for all cell adhesion experiments. Data are expressed as means ± SEM, (A,B) n = 3, (C) n = 2. * p ≤ 0.05 vs. TNF (positive) control.
2 × 10^4 RAW264.7 macrophages/well were plated in a 96-well plate and cultured for 24 h at 37 °C. To investigate if the melittin peptides induce nitrogen oxide (NO) synthesis, the melittin peptides, control (DMSO), and positive control (100 ng/mL lipopolysaccharide (LPS)) were added. To evaluate the effect of melittin peptides on inhibiting NO synthesis, the cells were pre-incubated with peptides or control (DMSO) for 30 min before 100 ng/mL LPS were added. After 24 h supernatants were collected and stored at −80 °C.
NO was determined with the Griess method. Briefly, for the standard curve, different concentrations of sodium nitrite (0–50 µM) were prepared in the medium. A total of 80 µL cell supernatant or standard sample were added to a 96-well microplate and subsequently, 20 µL sulfanilamide solution (120 mg sulfanilamide in 30 mL 1 N hydrochloric acid) and 20 µL naphthylenediamine solution (180 mg N-(1-naphthyl)ethylenediamine dihydrochloride in 30 mL water) were added. After 15 min of incubation, the absorbance (540 nm) was measured with the EnSpire Plate Reader (PerkinElmer, Waltham, MA, USA). For the induction assay, the NO levels of the melittin peptides-treated samples were related to the DMSO-treated sample. For the inhibition assay, the NO levels of the melittin peptides-treated cells were correlated with the LPS-treated samples.

Substance | induction of Ca2+ release (HEK293T cells [1]) | inhibition of ionomycin-induced Ca2+ release (HEK293T cells [2]) | reduction of cell viability (RAW264.7 cells [3]; RAW264.7, 25 µg/mL, 24 h, WST-8 formazan absorbance, vehicle = 100%, n = 3) | cytotoxicity in RAW264.7 (RAW264.7 cells [3]; RAW264.7 macrophage, Discussion) | inhibition of LPS-induced NO synthesis (RAW264.7 cells [4])
halictin [Hal2] | without inducing Ca^2+ release | inhibited the ionomycin-induced Ca^2+ release |  |  | 
xylopin [Xac3] | induced a significant release of Ca^2+ |  | more than 90% | induced significant cytotoxicity | prevented LPS-induced NO synthesis in a concentration-dependent manner; also recorded: inhibit NO synthesis
codesane | without inducing Ca^2+ release | inhibited the ionomycin-induced Ca^2+ release; also recorded: inhibit Ca^2+ levels |  |  | prevented LPS-induced NO synthesis in a concentration-dependent manner
xylopin [Xac1] |  | inhibit Ca^2+ levels |  |  | 
osmin | induced a significant release of Ca^2+; also recorded: induce Ca^2+ release |  |  |  | prevented LPS-induced NO synthesis in a concentration-dependent manner
halictin |  | inhibit Ca^2+ levels |  |  | 
melectin | induced a significant release of Ca^2+; also recorded: induce Ca^2+ release |  |  |  | prevented LPS-induced NO synthesis in a concentration-dependent manner
